According to ChEMBL document CHEMBL1133542, “Adenosine deaminase inhibitors: synthesis and biological evaluation of unsaturated, aromatic, and oxo derivatives of (+)-erythro-9-(2'S-hydroxy-3'R-nonyl)adenine [(+)-EHNA]” (J Med Chem, 2000):

Biological target: T1, Adenosine deaminase (Bos taurus, UniProt P56658)
T1 sequence (P56658 whole entry): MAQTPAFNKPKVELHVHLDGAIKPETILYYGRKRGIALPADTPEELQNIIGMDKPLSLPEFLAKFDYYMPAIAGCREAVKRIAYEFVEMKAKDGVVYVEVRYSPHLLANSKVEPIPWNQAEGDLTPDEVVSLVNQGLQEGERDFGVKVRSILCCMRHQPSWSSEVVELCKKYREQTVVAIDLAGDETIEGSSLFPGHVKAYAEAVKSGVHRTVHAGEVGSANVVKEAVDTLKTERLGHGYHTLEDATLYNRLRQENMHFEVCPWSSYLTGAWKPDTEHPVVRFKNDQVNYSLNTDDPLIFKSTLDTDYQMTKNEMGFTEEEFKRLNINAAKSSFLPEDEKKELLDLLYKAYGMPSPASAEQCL
Description: Inhibition of Adenosine deaminase (ADA) of calf intestine

Compound	Ki [nM]
C[C@H](O)[C@@H](COCCc1ccccc1)n1cnc2c(N)ncnc21	93.1
CCCCOC[C@H]([C@H](C)O)n1cnc2c(N)ncnc21	123
